Results as given in ChEMBL document CHEMBL5321290, “Discovery of the Diphenyl 6-Oxo-1,6-dihydropyridazine-3-carboxylate/carboxamide Analogue J27 for the Treatment of Acute Lung Injury and Sepsis by Targeting JNK2 and Inhibiting the JNK2-NF-κB/MAPK Pathway” (J Med Chem, 2023).
Calls of active or inactive are those of the source. The rule behind the calls is not given here.

Tests used:
[1] = test system: Mus musculus; assay: Antiinflammatory activity against LPS-induced acute lung injury C57 mouse model assessed as reduction in LPS-induced neutrophil numbers in alveolar lavage fluid at 20 to 40 mg/kg, po thrice at 12 hrs interval followed 30 mins treated with LPS; format: functional, organism-based; conditions: dose 20-40 mg/kg, time 36.5 hrs
[2] = target: c-Jun N-terminal kinase (Mus musculus) (UniProt Q91Y86+Q9WTU6+Q61831); assay: Inhibition of JNK phosphorylation in mouse J774A.1 cells assessed as decrease in LPS-stimulated JNK phosphorylation level pretreated at 10 uM for 1 hrs followed by induced with LPS for 40 mins by Western blot analysis; format: cell-based; conditions: J774.1, time 100.0 min
[3] = test system: Mus musculus; assay: Antiinflammatory activity against LPS-induced septic shock mouse model assessed as improvement in LPS-induced weight loss at 20 mg/kg, po pretreated 1 hr before LPS administration measured upto 120 hrs; format: functional, organism-based; conditions: time <= 121.0 hrs
[4] = test system: Mus musculus; assay: Antiinflammatory activity against LPS-induced septic shock mouse model assessed as improvement in survival at 20 mg/kg, po pretreated 1 hr before LPS administration measured upto 96 hrs; format: functional, organism-based; conditions: time <= 97.0 hrs
[5] = test system: Mus musculus; assay: Antiinflammatory activity against LPS-induced acute lung injury C57 mouse model assessed as decrease in LPS-induced TNFalpha level in serum at 20 to 40 mg/kg, po thrice at 12 hrs interval followed 30 mins treated with LPS by ELISA; format: functional, organism-based; conditions: dose 20-40 mg/kg, time 36.5 hrs
[6] = test system: Mus musculus; assay: Antiinflammatory activity against LPS-induced acute lung injury C57 mouse model assessed as reduction in LPS-induced p-JNK level in lung tissue at 40 mg/kg, po thrice at 12 hrs interval followed 30 mins treated with LPS by Western blot analysis; format: functional, organism-based; conditions: time 36.5 hrs
[7] = test system: THP-1; assay: Antiinflammatory activity against human THP-1 cells assessed as inhibition of LPS-stimulated IL6 release measured after 30 mins by ELISA; format: functional, cell-based; conditions: THP-1, 0.5 h
[8] = target: T1, NF-kappa-B inhibitor alpha (Mus musculus) (UniProt Q9Z1E3); assay: […] in mouse J774A.1 cells pretreated at 10 uM for 2 hrs followed by induced with LPS for 30 mins by Western blot analysis; format: cell-based; conditions: J774.1
T1 sequence (whole entry): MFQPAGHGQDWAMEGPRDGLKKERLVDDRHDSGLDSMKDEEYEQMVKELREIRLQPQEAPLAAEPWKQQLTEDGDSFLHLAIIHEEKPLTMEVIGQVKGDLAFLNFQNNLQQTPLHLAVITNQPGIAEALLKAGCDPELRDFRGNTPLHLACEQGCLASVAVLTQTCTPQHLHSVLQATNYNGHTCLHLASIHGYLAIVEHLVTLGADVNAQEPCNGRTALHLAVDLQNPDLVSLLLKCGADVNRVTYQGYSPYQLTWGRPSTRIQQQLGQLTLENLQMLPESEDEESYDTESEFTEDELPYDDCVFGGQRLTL

[9] = test system: Mus musculus; assay: Antiinflammatory activity against LPS-induced acute lung injury C57 mouse model assessed as reduction in LPS-induced p-p65 level in lung tissue at 40 mg/kg, po thrice at 12 hrs interval followed 30 mins treated with LPS by Western blot analysis; format: functional, organism-based; conditions: time 36.5 hrs
[10] = Subacute toxicity in ICR mouse assessed as change in body weight at 500 to 100 mg/kg, IG measured for 10 days; format: organism-based; conditions: in vivo, po, 240 h, dose 500-100 mg/kg, time 10 day
[11] = Half life in Sprague-Dawley rat at 10 mg/kg, po measured upto 24 hrs by UPLC-MS/MS analysis; format: ADME, organism-based; conditions: in vivo
[12] = test system: Mus musculus; assay: Antiinflammatory activity against LPS-induced acute lung injury C57 mouse model assessed as decrease in LPS-induced neutrophile count in broncho alveolar lavage fluid at 20 mg/kg, po thrice at 12 hrs interval; format: functional, organism-based; conditions: Bronchoalveolar lavage
[13] = test system: Mus musculus; assay: Antiinflammatory activity against LPS-induced acute lung injury C57 mouse model assessed as decrease in LPS-induced lung wet to dry weight ratio at 20 mg/kg, po thrice at 12 hrs interval; format: functional, organism-based

Chain of c-Jun N-terminal kinase (Mus musculus) (Q61831 whole entry, looked up): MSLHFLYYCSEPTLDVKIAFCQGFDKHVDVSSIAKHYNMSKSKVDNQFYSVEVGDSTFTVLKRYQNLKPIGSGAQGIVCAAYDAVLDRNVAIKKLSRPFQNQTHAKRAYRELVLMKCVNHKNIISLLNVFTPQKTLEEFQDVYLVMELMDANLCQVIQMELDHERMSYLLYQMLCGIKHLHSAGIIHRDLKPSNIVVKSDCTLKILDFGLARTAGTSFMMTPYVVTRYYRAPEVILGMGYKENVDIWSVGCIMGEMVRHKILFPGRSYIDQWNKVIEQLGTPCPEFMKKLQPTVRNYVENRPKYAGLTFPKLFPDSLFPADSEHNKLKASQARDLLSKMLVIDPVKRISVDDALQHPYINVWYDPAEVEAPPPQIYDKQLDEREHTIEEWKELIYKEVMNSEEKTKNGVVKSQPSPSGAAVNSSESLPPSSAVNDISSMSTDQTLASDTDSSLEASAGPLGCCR
Chain of c-Jun N-terminal kinase (Mus musculus) (Q91Y86 whole entry, looked up): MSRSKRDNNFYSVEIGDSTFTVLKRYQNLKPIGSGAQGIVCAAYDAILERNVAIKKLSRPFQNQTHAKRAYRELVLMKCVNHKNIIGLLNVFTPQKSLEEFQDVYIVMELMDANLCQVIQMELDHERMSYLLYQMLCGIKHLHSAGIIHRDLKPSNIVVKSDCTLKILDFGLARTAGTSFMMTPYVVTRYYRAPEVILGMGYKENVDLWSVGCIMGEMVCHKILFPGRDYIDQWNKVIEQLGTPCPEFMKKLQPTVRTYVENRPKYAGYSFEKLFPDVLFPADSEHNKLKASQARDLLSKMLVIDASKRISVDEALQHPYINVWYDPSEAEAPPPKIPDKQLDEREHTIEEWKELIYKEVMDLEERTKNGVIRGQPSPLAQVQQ
Chain of c-Jun N-terminal kinase (Mus musculus) (Q9WTU6 whole entry, looked up): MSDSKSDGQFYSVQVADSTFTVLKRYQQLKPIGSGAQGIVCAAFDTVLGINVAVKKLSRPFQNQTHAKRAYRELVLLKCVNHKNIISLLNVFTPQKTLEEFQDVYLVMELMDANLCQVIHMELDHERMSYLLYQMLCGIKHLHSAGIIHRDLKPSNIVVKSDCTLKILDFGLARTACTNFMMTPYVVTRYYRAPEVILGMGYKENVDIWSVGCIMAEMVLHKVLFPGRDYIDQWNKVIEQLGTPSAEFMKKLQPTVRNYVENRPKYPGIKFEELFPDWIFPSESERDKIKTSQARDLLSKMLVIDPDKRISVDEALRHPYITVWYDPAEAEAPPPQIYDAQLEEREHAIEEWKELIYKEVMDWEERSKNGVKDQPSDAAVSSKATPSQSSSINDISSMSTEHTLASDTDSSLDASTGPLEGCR

Which results are given for `COc1cc2nccc(Oc3ccc(NC(=O)c4nn(-c5ccc(C)cc5)c(=O)cc4C)cc3)c2cc1OC`?
Activity [1]: Active; inhibition [2]: Active; Activity [3]: Active; Activity [4]: Active; Activity [5]: Active; Activity [6]: Active; IC50 [7]: 220 nM; Activity [8]: Active; Activity [9]: Active; Activity [10]: Non-Toxic; half-life [11]: 1.16 h; Activity [12]: inactive; Activity [13]: inactive
